Reference: ChEMBL document CHEMBL3045862, “PRE-CLINICAL AND CLINICAL PHARMACOKINETICS OF THE DIASTEREOMERS OF ARTEETHER, A POTENT ANTIMALARIAL” (Med Chem Res, 2004)

Legend:
[1] = Elimination half life in Rattus norvegicus Sprague-Dawley (rat) at 17.5 mg/kg, po; assay type: ADME, organism-based; parameters: dose 17.5 mg/kg, route oral; conditions: in vivo, read-out: beta t1/2 (converted)
Rattus norvegicus [2] = test: Dose normalized AUC in Rattus norvegicus Sprague-Dawley (rat) at 2 mg/kg, iv; assay type: ADME, organism-based; parameters: dose 2 mg/kg, route intravenous; conditions: in vivo
Rattus norvegicus [3] = test: Volume of distribution in Rattus norvegicus Sprague-Dawley (rat) at 9 mg/kg, administered intramuscularly; assay type: ADME, organism-based; parameters: dose 9 mg/kg, route intramuscular; conditions: in vivo, im
Rattus norvegicus [4] = test: Dose normalized AUC in Rattus norvegicus Sprague-Dawley (rat) at 30 mg/kg, po; assay type: ADME, organism-based; parameters: dose 30 mg/kg, route oral; conditions: in vivo
[5] = Clearance in Macaca mulatta (Rhesus monkey) at 7.5 mg/kg, administered intramuscularly; assay type: ADME, organism-based; parameters: dose 7.5 mg/kg, route intramuscular; conditions: in vivo, im
[6] = Mean residence time in Homo sapiens (human) at 150 mg; assay type: ADME, organism-based; conditions: in vivo
Rattus norvegicus [7] = test: Dose normalized AUC in Rattus norvegicus Sprague-Dawley (rat) at 9 mg/kg, administered intramuscularly; assay type: ADME, organism-based; parameters: dose 9 mg/kg, route intramuscular; conditions: in vivo, im
[8] = Clearance in Rattus norvegicus Sprague-Dawley (rat) at 30 mg/kg, administered intramuscularly; assay type: ADME, organism-based; parameters: dose 30 mg/kg, route intramuscular; conditions: Sprague-Dawley, in vivo, im
[9] = Tmax in Rattus norvegicus Sprague-Dawley (rat) at 17.5 mg/kg, administered intramuscularly; assay type: ADME, organism-based; parameters: dose 17.5 mg/kg, route intramuscular; conditions: in vivo, im
[10] = Mean residence time in Macaca mulatta (Rhesus monkey) at 4 mg/kg, iv; assay type: ADME, organism-based; parameters: dose 4 mg/kg, route intravenous; conditions: in vivo
Rattus norvegicus [11] = test: Dose normalized AUC in Rattus norvegicus Sprague-Dawley (rat) at 17.5 mg/kg, administered intramuscularly; assay type: ADME, organism-based; parameters: dose 17.5 mg/kg, route intramuscular; conditions: in vivo, im
Rattus norvegicus [12] = test: Dose normalized AUC in Rattus norvegicus Sprague-Dawley (rat) at 17.5 mg/kg, po; assay type: ADME, organism-based; parameters: dose 17.5 mg/kg, route oral; conditions: in vivo
[13] = Mean residence time in Rattus norvegicus Sprague-Dawley (rat) at 17.5 mg/kg, po; assay type: ADME, organism-based; parameters: dose 17.5 mg/kg, route oral; conditions: in vivo
[14] = Cmax in Macaca mulatta (Rhesus monkey) at 7.5 mg/kg, administered intramuscularly; assay type: ADME, organism-based; parameters: dose 7.5 mg/kg, route intramuscular; conditions: in vivo, im
[15] = AUC (0 to infinity) in Macaca mulatta (Rhesus monkey) at 4 mg/kg, iv; assay type: ADME, organism-based, Plasma; parameters: time infinity, dose 4 mg/kg, route intravenous; conditions: plasma
[16] = Clearance in Rattus norvegicus Sprague-Dawley (rat) at 2 mg/kg, iv; assay type: ADME, organism-based; parameters: dose 2 mg/kg, route intravenous; conditions: Sprague-Dawley, in vivo
[17] = Clearance in Homo sapiens (human) at 150 mg; assay type: ADME, organism-based; conditions: in vivo
[18] = AUC (0 to infinity) in Homo sapiens (human) at 150 mg; assay type: ADME, organism-based; parameters: dose 150 mg, time infinity; conditions: plasma
Rhesus monkey [19] = test: Dose normalized AUC in Macaca mulatta (Rhesus monkey) at 50 mg/kg, po; assay type: ADME, organism-based; parameters: dose 50 mg/kg, route oral; conditions: in vivo
[20] = AUC (0 to infinity) in Rattus norvegicus Sprague-Dawley (rat) at 17.5 mg/kg, administered intramuscularly; assay type: ADME, organism-based, Plasma; parameters: dose 17.5 mg/kg, route intramuscular, time infinity; conditions: Sprague-Dawley, plasma, im
[21] = Elimination half life in Rattus norvegicus Sprague-Dawley (rat) at 9 mg/kg, administered intramuscularly; assay type: ADME, organism-based; parameters: dose 9 mg/kg, route intramuscular; conditions: in vivo, im, read-out: beta t1/2 (converted)
[22] = Mean residence time in Rattus norvegicus Sprague-Dawley (rat) at 30 mg/kg, po; assay type: ADME, organism-based; parameters: dose 30 mg/kg, route oral; conditions: in vivo
[23] = Clearance in Rattus norvegicus Sprague-Dawley (rat) at 9 mg/kg, administered intramuscularly; assay type: ADME, organism-based; parameters: dose 9 mg/kg, route intramuscular; conditions: Sprague-Dawley, in vivo, im
[24] = Tmax in Macaca mulatta (Rhesus monkey) at 50 mg/kg, po; assay type: ADME, organism-based; parameters: dose 50 mg/kg, route oral; conditions: in vivo
[25] = Cmax in Homo sapiens (human) at 150 mg; assay type: ADME, organism-based; parameters: dose 150 mg; conditions: in vivo
[26] = Elimination half life in Macaca mulatta (Rhesus monkey) at 50 mg/kg, po; assay type: ADME, organism-based; parameters: dose 50 mg/kg, route oral; conditions: in vivo, read-out: beta t1/2 (converted)
[27] = Cmax in Rattus norvegicus Sprague-Dawley (rat) at 9 mg/kg, administered intramuscularly; assay type: ADME, organism-based; parameters: dose 9 mg/kg, route intramuscular; conditions: in vivo, im
Rhesus monkey [28] = test: Dose normalized AUC in Macaca mulatta (Rhesus monkey) at 7.5 mg/kg, administered intramuscularly; assay type: ADME, organism-based; parameters: dose 7.5 mg/kg, route intramuscular; conditions: in vivo, im
[29] = Mean residence time in Macaca mulatta (Rhesus monkey) at 50 mg/kg, po; assay type: ADME, organism-based; parameters: dose 50 mg/kg, route oral; conditions: in vivo
[30] = Clearance in Rattus norvegicus Sprague-Dawley (rat) at 17.5 mg/kg, po; assay type: ADME, organism-based; parameters: dose 17.5 mg/kg, route oral; conditions: Sprague-Dawley, in vivo
Rattus norvegicus [31] = test: Volume of distribution in Rattus norvegicus Sprague-Dawley (rat) at 30 mg/kg, po; assay type: ADME, organism-based; parameters: dose 30 mg/kg, route oral; conditions: in vivo
[32] = Tmax in Rattus norvegicus Sprague-Dawley (rat) at 30 mg/kg, po; assay type: ADME, organism-based; parameters: dose 30 mg/kg, route oral; conditions: in vivo
[33] = Clearance in Macaca mulatta (Rhesus monkey) at 4 mg/kg, iv; assay type: ADME, organism-based; parameters: dose 4 mg/kg, route intravenous; conditions: in vivo
[34] = Cmax in Rattus norvegicus Sprague-Dawley (rat) at 17.5 mg/kg, po; assay type: ADME, organism-based; parameters: dose 17.5 mg/kg, route oral; conditions: in vivo
[35] = AUC (0 to infinity) in Rattus norvegicus Sprague-Dawley (rat) at 2 mg/kg, iv; assay type: ADME, organism-based, Plasma; parameters: time infinity, dose 2 mg/kg, route intravenous; conditions: Sprague-Dawley, plasma
[36] = Mean residence time in Rattus norvegicus Sprague-Dawley (rat) at 9 mg/kg, administered intramuscularly; assay type: ADME, organism-based; parameters: dose 9 mg/kg, route intramuscular; conditions: in vivo, im
Rattus norvegicus [37] = test: Volume of distribution in Rattus norvegicus Sprague-Dawley (rat) at 17.5 mg/kg, administered intramuscularly; assay type: ADME, organism-based; parameters: dose 17.5 mg/kg, route intramuscular; conditions: in vivo, im
[38] = Clearance in Rattus norvegicus Sprague-Dawley (rat) at 17.5 mg/kg, administered intramuscularly; assay type: ADME, organism-based; parameters: dose 17.5 mg/kg, route intramuscular; conditions: Sprague-Dawley, in vivo, im
[39] = Elimination half life in Homo sapiens (human) at 150 mg; assay type: ADME, organism-based; conditions: in vivo, read-out: beta t1/2 (converted)
Rhesus monkey [40] = test: Dose normalized AUC in Macaca mulatta (Rhesus monkey) at 4 mg/kg, iv; assay type: ADME, organism-based; parameters: dose 4 mg/kg, route intravenous; conditions: in vivo
[41] = AUC (0 to infinity) in Rattus norvegicus Sprague-Dawley (rat) at 9 mg/kg, po; assay type: ADME, organism-based, Plasma; parameters: time infinity, dose 9 mg/kg, route oral; conditions: Sprague-Dawley, plasma

SMILES: CCO[C@H]1O[C@@H]2O[C@@]3(C)CC[C@H]4[C@H](C)CC[C@@H]([C@H]1C)[C@@]24OO3 [ARTEMOTIL]
- half-life [1]: 4.5 h
- AUC/dose (Rattus norvegicus [2]): 132 ng·h/mL
- Vd (Rattus norvegicus [3]): 213.2 L/kg
- AUC/dose (Rattus norvegicus [4]): 1.2 ng·h/mL
- CL/F [5]: 118 mL/min/kg
- MRT [6]: 47.4 h
- AUC/dose (Rattus norvegicus [7]): 187.8 ng·h/mL
- CL/F [8]: 762 mL/min/kg
- Tmax [9]: 0.5 h
- MRT [10]: 2.8 h
- AUC/dose (Rattus norvegicus [11]): 197.1 ng·h/mL
- AUC/dose (Rattus norvegicus [12]): 2.8 ng·h/mL
- MRT [13]: 6.9 h
- Cmax [14]: 45.2 ng/mL
- AUC(0-inf) [15]: 1220 ng·h/mL
- clearance [16]: 127 mL/min/kg
- clearance [17]: 13.3 mL/min/kg
- AUC(0-inf) [18]: 2330 ng·h/mL
- AUC/dose (Rhesus monkey [19]): 0.2 ng·h/mL
- AUC(0-inf) [20]: 2410 ng·h/mL
- half-life [21]: 28.5 h
- MRT [22]: 3.4 h
- CL/F [23]: 86.7 mL/min/kg
- Tmax [24]: 0.583 h
- Cmax [25]: 49.8 ng/mL
- half-life [26]: 4.4 h
- Cmax [27]: 39.8 ng/mL
- AUC/dose (Rhesus monkey [28]): 142.2 ng·h/mL
- MRT [29]: 5.8 h
- CL/F [30]: 5060 mL/min/kg
- Vd (Rattus norvegicus [31]): 3024.2 L/kg
- Tmax [32]: 5 min
- clearance [33]: 38.3 mL/min/kg
- Cmax [34]: 8.1 ng/mL
- AUC(0-inf) [35]: 185 ng·h/mL
- MRT [36]: 40.8 h
- Vd (Rattus norvegicus [37]): 198.7 L/kg
- CL/F [38]: 83.3 mL/min/kg
- half-life [39]: 30.2 h
- AUC/dose (Rhesus monkey [40]): 435.8 ng·h/mL
- AUC(0-inf) [41]: 46.8 ng·h/mL
